Common to all, as to type: cell-based
The subject of one series is HEK293 cells. In words: Cell viability and toxicity (CellTiter-Glo). The settings on record: up to 100 μM after 18 hrs. Here is the method: HEK293 cells were plated at 20 k cells/well and exposed to vehicle (DMSO), digitonin (positive control for cell death), or JRW-0344 for 10 min/30 min/120 min/240 min/or 18 hrs. CellTiter-Glo (Promega Corp.) was added, and luminescence measured.

The next series deals with SRC-Nluc or Nluc-HaloTag. In words: Inhibition of extracellular luciferase activity (SRC-Nluc / Nluc-HaloTag BRET). Conditions: HEK293; 1 μM Dasatinib-DY605 (SRC-Nluc) or 100 nM NanoBRET-618 (Nluc-HaloTag). Here is the method:
HEK293 were transiently transfected with either SRC-Nluc or Nluc-HaloTag. 24 hrs post-transfection, 20 k/cells were plated into wells of a 96-well plate (Costar 3600). 1 μM of the cell impermeable tracer Dasatinib-DY605 was added to the HEK293 SRC-Nluc expressing cells, and 100 nM of the cell permeable tracer NanoBRET-618, was added to the Nluc-HaloTag expressing cells. Both HEK293 SRC-Nluc and Nluc-HaloTag cells were exposed to a dose-response curve of JRW-0344.

For series [1], the system named is Beta-2 Adrenergic Receptor-Nluc (B2AR-Nluc) fusion protein. In words: Cell permeability, B2AR-Nluc in HEK293 or HeLa cells -/+ digitonin. The method, then:
HEK293 or HeLa cells were transiently transfected with Beta-2 Adrenergic Receptor-Nluc (B2AR-Nluc) fusion protein to anchor and orient Nluc cytosolically. 24 hrs post-transfection, cells were treated with −/+50 μg/mL digitonin to emulate a live and lytic scenario, respectively. Then, intact cells and permeabilized cells were exposed to a compound response curve of thienopyrrole compound up to 2 hrs. 10 μM furimazine (Promega Corp.) was added, and luminescence was measured. If a thienopyrrole compound (inhibitor) was permeable, the dose-response curves for both live and permeabilized cells overlapped. However, if a thienopyrrole compound was impermeable, the EC50 was right-shifted in the live cells relative to the permeabilized cells.

Series [2] relates to B2AR-Nluc or Nluc-B2AR fusion protein. In words: Cell permeability with bioluminescent imaging (HeLa, B2AR-Nluc / Nluc-B2AR). Conditions: 30 μM compound, 10 μM furimazine. Here is the method: HeLa cells were transiently transfected with Beta-2 Adrenergic Receptor-Nluc (B2AR-Nluc; C-Terminus Nluc) or Nluc-Beta-2 Adrenergic Receptor (Nluc-B2AR; N-terminus Nluc) fusion protein to anchor and orient Nluc intracellularly or extracellularly, respectively. 24 hrs post-transfection, cells were treated with −/+30 μM of a thienopyrrole compound, JRW-0147, JRW-0051, and JRW-0138. 10 μM furimazine was added, and luminescence was detected by imaging on the Olympus LV200.

In a further series the test system is Src-Nluc fusion protein. In words: Target engagement model (Src-Nluc BRET). The settings on record: HEK293 Src-Nluc -/+ 50 μg/mL digitonin; 1 μM Dasatinib-DY605 tracer; 2 hrs. Here is the method:
HEK293 cells were transiently transfected with Src-Nluc fusion protein. 24 hours post-transfection, cells were treated with −/+50 μg/mL digitonin to simulate a live and lytic scenario, respectively. Intact cells and permeabilized cells were labeled with 1 μM Dasatinib-DY605 tracer (impermeable) and treated with a cell impermeable thienopyrrole compound JRW-0147 response curve for 2 hrs. 10 μM furimazine was added, and a BRET ratio 610/450 nm was recorded.

The next series has as its system Nluc enzyme. In words: Multiplex RealTime-Glo / Caspase-Glo 3/7 in MCF7 cells. Here is the method:
(§1) A) In a Corning 3570 assay plate, MCF7 cells were plated at 1,000 cells/well in 20 μL of cell culture media (EMEM supplemented with 0.01 mg/mL human recombinant insulin and 10% fetal bovine serum) and incubated in overnight. 10 μL of 4× REALTIME-GLO™ MT Cell Viability reagents (Promega Corporation) in media or 10 μL media only was added to the cells. 10 μL of 40 μM staurosporine in media or 10 μL media only (control) was added to the cells. The cells were incubated, and caspase activation monitored at 5.5 hrs post-reagent addition. To monitor caspase activation, 40 μL CASPASE-GLO® 3/7 Assay Reagent (Promega Corporation), either on its own (Caspase) or with 200 μM of JRW-0004, JRW-0013, or JRW-0042, was added. Reactions were incubated at RT, and luminescence was measured at 1 hr 10 min post-reagent addition on Tecan M1000 Pro plate reader.
(§2) When comparing the signal generated from the CASPASE-GLO® reagent in media only versus the signal generated in media containing REALTIME-GLO™ reagent, the signal is higher in the multiplex reaction.

For the next series, the target named is Nluc (Oplophorus gracilirostris, UniProt Q9GV45, A31E/A60N/A81I/F95D/I117V/K70R/L54V/L99Q/M102K/N193R/P142E/Q151K/Q38R/Q45L/V71I/Y165I). The description is as above. Also noted: purchased Promega Corporation. The method, then:
as §1, §2

[3] abbreviates: 10 μM Stauro vs Control, 200 μM compound.
[4] abbreviates: CASPASE-GLO 3/7 reagent with 200 μM compound, 1 hr 10 min.

Nluc, sequence (Q9GV45 28-196 with tags or gaps with the stated changes limits assumed): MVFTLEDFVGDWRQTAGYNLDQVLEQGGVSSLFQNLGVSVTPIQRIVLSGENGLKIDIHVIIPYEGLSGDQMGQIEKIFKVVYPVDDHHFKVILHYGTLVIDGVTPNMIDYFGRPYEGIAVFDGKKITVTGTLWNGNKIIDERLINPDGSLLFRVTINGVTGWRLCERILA

In the case of `CCN(C(=O)Cn1c(C(=O)N[C@H]2CC[C@H](C(=O)NCCCCCCS(=O)(=O)[O-])CC2)cc2sccc21)c1cccc(C)c1.[Na+]` [JRW-0344, Sodium 6-(trans-4-(4-(2-(ethyl(m-tolyl)amino)-2-oxoethyl)-4H-thieno[3,2-b]pyrrole-5-carboxamido)cyclohexane-1-carboxamido)hexane-1-sulfonate], the “Toxicity (FIG. 18A)” value in the series with HEK293 cells is reported as “no apparent toxicity”. Further, the “Inhibition of BRET (FIGS. 20A-20C)” value in the series with SRC-Nluc or Nluc-HaloTag was “inhibits BRET in cell debris in the HEK293 SRC-Nluc expressing cells, but not in HEK293 Nluc-HaloTag expressing cells”.
Take `CCN(C(=O)Cn1c(C(=O)N[C@H]2CC[C@H](C(=O)NCCCCCC(=O)O)CC2)cc2sccc21)c1cccc(C)c1` [JRW-0147, 6-(trans-4-(4-(2-(ethyl(m-tolyl)amino)-2-oxoethyl)-4H-thieno[3,2-b]pyrrole-5-carboxamido)cyclohexane-1-carboxamido)hexanoic acid]: the Cell permeability result in series [1] is given as “cell-impermeable”. For the same compound, in series [2], the “Permeability and inhibition of extracellular / intracellular Nluc by imaging (FIG. 14)” value is “impermeable and inhibited extracellular Nluc and enhanced intracellular Nluc”. In addition, the “Inhibition of BRET in cell debris vs inside cells (FIGS. 15B-15C)” value with Src-Nluc fusion protein was “inhibited BRET in cell debris, but not BRET inside cells”.
Regarding `CCN(C(=O)Cn1c(C(=O)N[C@H]2CC[C@H](C(=O)OC)CC2)cc2sccc21)c1cccc(C)c1` [JRW-0013, trans-methyl-4-(4-(2-(ethyl(m-tolyl)amino)-2-oxoethyl)-4H-thieno[3,2-b]pyrrole-5-carboxamido)cyclohexane-1-carboxylate], the Cell permeability result in series [1] is listed as “cell-permeable”. Besides, the “Fold Cont, Media only” value in the series on Nluc enzyme (setting [3]) was determined as 6.85. Besides, in the series on Nluc enzyme (setting [4]), the “Avg (luminescence), Media only, 10 μM Stauro” value came out at 55282 and the “Avg (luminescence), Media only, Control” value stood at 8069. In addition, at Nluc (setting [3]), the “Fold Cont, Media containing RealTime-Glo” value was 6.29. On Nluc (setting [4]), the “Avg (luminescence), Media containing RealTime-Glo, 10 μM Stauro” value was found to be 54338 and the “Avg (luminescence), Media containing RealTime-Glo, Control” value came to 8636.
